Patent US10414763B2 (CANCER RESEARCH TECHNOLOGY LIMITED, priority 2014, dated 2019)

Molecular target: T1, full-length human PKCι (Homo sapiens, UniProt P41743)
T1 construct: Recombinant, full-length human PKCι expressed in Sf21 insect cells is also commercially available; purchased EMD Millipore; host or cells: Sf21 insect cells (baculovirus)
T1 sequence (P41743 1-596): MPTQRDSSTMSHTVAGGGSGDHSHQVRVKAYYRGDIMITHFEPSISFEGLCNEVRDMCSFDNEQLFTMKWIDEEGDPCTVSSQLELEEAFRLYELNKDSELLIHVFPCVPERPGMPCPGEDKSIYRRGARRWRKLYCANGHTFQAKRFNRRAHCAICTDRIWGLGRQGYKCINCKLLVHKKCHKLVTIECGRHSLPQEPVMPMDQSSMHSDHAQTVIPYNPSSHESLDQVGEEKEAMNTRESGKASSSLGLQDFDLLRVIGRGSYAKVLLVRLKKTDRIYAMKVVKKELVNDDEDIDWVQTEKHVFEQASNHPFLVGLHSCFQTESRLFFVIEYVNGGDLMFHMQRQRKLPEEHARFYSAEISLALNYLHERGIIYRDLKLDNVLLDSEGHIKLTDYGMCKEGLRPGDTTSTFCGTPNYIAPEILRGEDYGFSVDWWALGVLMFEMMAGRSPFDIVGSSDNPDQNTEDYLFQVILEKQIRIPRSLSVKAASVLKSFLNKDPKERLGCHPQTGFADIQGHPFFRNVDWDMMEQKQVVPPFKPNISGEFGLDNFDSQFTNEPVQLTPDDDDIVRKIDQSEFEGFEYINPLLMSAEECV
Assay: PKCι IC50 IMAP fluorescence polarisation assay, full-length enzyme, 150 μM ATP
Type: biochemical
Conditions: read-out: IC50 in IMAP assay against full length PKCi at 150 μM ATP
How it was run: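 IMAP fluorescence polarisation kinase assay: 15 pM baculovirus-expressed human PKCiota with 100 nM FAM-pseudosubstrate peptide and 150 μM ATP, 1 h at 25 °C. IMAP detection reagent then 2 h at 25 °C before FP measurement. Inhibition referenced to no-compound and no-enzyme controls for IC50 fitting.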

Compound | IC50
Cn1c(Nc2cc(-c3nc(N[C@H]4CCNCC4(C)C)c4c(C5CCC5)cncc4n3)ccn2)nc2ccccc21 [Example 281] | < 100 nM
Cn1nc(Nc2cc(-c3nc(N[C@H]4CCNCC4(C)C)c4c(C5CCC5)cncc4n3)ccn2)c2ccccc21 [Example 284, {5-Cyclobutyl-2-[2-(1-methyl-1H-indazol-3-ylamino)-pyridin-4-yl]-pyrido[3,4-d]pyrimidin-4-yl}-((S)-3,3-dimethyl-piperidin-4-yl)-amine] | < 100 nM
CC1(C)CNCC[C@@H]1Nc1nc(-c2cccc(Nc3nc(F)ccc3F)c2)nc2cncc(C3CCC3)c12 [Example 315, {5-Cyclobutyl-2-[3-(3,6-difluoro-pyridin-2-ylamino)-phenyl]-pyrido[3,4-d]pyrimidin-4-yl}-((S)-3,3-dimethyl-piperidin-4-yl)-amine] | 100 to 1000 nM
CC1(C)CNCC[C@@H]1Nc1nc(-c2ccnc(Nc3ncc(Cl)cc3F)c2)nc2cncc(C3CCC3)c12 [Example 316, {2-[2-(5-Chloro-3-fluoro-pyridin-2-ylamino)-pyridin-4-yl]-5-cyclobutyl-pyrido[3,4-d]pyrimidin-4-yl}-((S)-3,3-dimethyl-piperidin-4-yl)-amine] | < 100 nM
CC1(C)CNCC[C@@H]1Nc1nc(-c2ccnc(Nc3cccc(C#N)n3)c2)nc2cncc(C3CCC3)c12 [Example 317, 6-{4-[5-Cyclobutyl-4-((S)-3,3-dimethyl-piperidin-4-ylamino)-pyrido[3,4-d]pyrimidin-2-yl]-pyridin-2-ylamino}-pyridine-2-carbonitrile] | < 100 nM
CC1(C)CNCC[C@@H]1Nc1nc(-c2ccnc(Nc3ccc4cccc(F)c4n3)c2)nc2cncc(C3CCC3)c12 [Example 318, {5-Cyclobutyl-2-[2-(8-fluoro-quinolin-2-ylamino)-pyridin-4-yl]-pyrido[3,4-d]pyrimidin-4-yl}-((S)-3,3-dimethyl-piperidin-4-yl)-amine] | < 100 nM
CC1(C)CNCC[C@@H]1Nc1nc(-c2ccnc(Nc3ncc(Cl)cc3F)c2)nc2cncc(C3CC3)c12 [Example 319, {2-[2-(5-Chloro-3-fluoro-pyridin-2-ylamino)-pyridin-4-yl]-5-cyclopropyl-pyrido[3,4-d]pyrimidin-4-yl}-((S)-3,3-dimethyl-piperidin-4-yl)-amine] | < 100 nM
CC1(C)CNCC[C@@H]1Nc1nc(-c2ccnc(Nc3ncc(C#N)cc3F)c2)nc2cncc(C3CCC3)c12 [Example 320, 6-{4-[5-Cyclobutyl-4-((S)-3,3-dimethyl-piperidin-4-ylamino)-pyrido[3,4-d]pyrimidin-2-yl]-pyridin-2-ylamino}-5-fluoro-nicotinonitrile] | < 100 nM
CC1(C)CNCC[C@@H]1Nc1nc(-c2cccc(Nc3ccccn3)c2)nc2cncc(C3CCC3)c12 [Example 321, {5-Cyclobutyl-2-[3-(pyridin-2-ylamino)-phenyl]-pyrido[3,4-d]pyrimidin-4-yl}-((S)-3,3-dimethyl-piperidin-4-yl)-amine] | 100 to 1000 nM
Cc1cc(C#N)cnc1Nc1cc(-c2nc(N[C@H]3CCNCC3(C)C)c3c(C4CCC4)cncc3n2)ccn1 [Example 323, 6-{4-[5-Cyclobutyl-4-((S)-3,3-dimethyl-pipcridin-4-ylamino)-pyrido[3,4-d]pyrimidin-2-yl]-pyridin-2-ylamino}-5-methyl-nicotinonitrile] | < 100 nM
CC1(C)CNCC[C@@H]1Nc1nc(-c2cccc(Nc3cnccn3)c2)nc2cncc(C3CCC3)c12 [Example 324, 5-Cyclobutyl-N-[(4S)-3,3-dimethyl-4-piperidyl]-2-[3-(pyrazin-2-ylamino)phenyl]pyrido[3,4-d]pyrimidin-4-amine] | 1000 to 10000 nM
CC1(C)CNCC[C@@H]1Nc1nc(-c2ccnc(Nc3nc(F)cc(F)c3F)c2)nc2cncc(C3CC3)c12 [Example 325, 5-Cyclopropyl-N-[(4S)-3,3-dimethyl-4-piperidyl]-2-[2-[(3,4,6-trifluoro-2-pyridyl)amino]-4-pyridyl]pyrido[3,4-d]pyrimidin-4-amine] | < 100 nM
CC1(C)CNCC[C@@H]1Nc1nc(-c2ccnc(Nc3nc(F)cc(F)c3F)c2)nc2cncc(C3CCC3)c12 [Example 326, 5-Cyclobutyl-N-[(4S)-3,3-dimethyl-4-piperidyl]-2-[2-[(3,4,6-trifluoro-2-pyridyl)amino]-4-pyridyl]pyrido[3,4-d]pyrimidin-4-amine] | < 100 nM
CC1(C)CNCC[C@@H]1Nc1nc(-c2ccnc(Nc3nc4ccccc4o3)c2)nc2cncc(C3CC3)c12 [Example 327, N-[4-[5-Cyclopropyl-4-[[(4S)-3,3-dimethyl-4-piperidyl]amino]pyrido[3,4-d]pyrimidin-2-yl]-2-pyridyl]-1,3-benzoxazol-2-amine] | < 100 nM
CC1(C)CNCC[C@@H]1Nc1nc(-c2ccnc(Nc3cc4ccccn4n3)c2)nc2cncc(C3CC3)c12 [Example 328, 5-Cyclopropyl-N-[(4S)-3,3-dimethyl-4-piperidyl]-2-[2-(pyrazolo[1,5-a]pyridin-2-ylamino)-4-pyridyl]pyrido[3,4-d]pyrimidin-4-amine] | < 100 nM
CC1(C)CNCC[C@@H]1Nc1nc(-c2ccnc(Nc3ncn(-c4ccccc4)n3)c2)nc2cncc(C3CCC3)c12 [Example 329, 5-Cyclobutyl-N-[(4S)-3,3-dimethyl-4-piperidyl]-2-[2-[(1-phenyl-1,2,4-triazol-3-yl)amino]-4-pyridyl]pyrido[3,4-d]pyrimidin-4-amine] | < 100 nM
c1ccc(-n2cnc(Nc3cc(-c4nc(N5CCNCC5)c5c(C6CCC6)cncc5n4)ccn3)n2)cc1 [Example 330, 4-(5-Cyclobutyl-4-piperazin-1-yl-pyrido[3,4-d]pyrimidin-2-yl)-N-(1-phenyl-1,2,4-triazol-3-yl)pyridin-2-amine] | < 100 nM
CN(c1nc(-c2ccnc(Nc3nc(F)ccc3F)c2)nc2cncc(C3CC3)c12)[C@H]1CCNCC1(C)C [Example 331, 5-Cyclopropyl-2-[2-[(3,6-difluoro-2-pyridyl)amino]-4-pyridyl]-N-[(4S)-3,3-dimethyl-4-piperidyl]-N-methyl-pyrido[3,4-d]pyrimidin-4-amine] | < 100 nM
CC1(C)CNCC[C@@H]1Nc1nc(-c2ccnc(Nc3nc4ccc(F)cc4o3)c2)nc2cncc(C3CC3)c12 [Example 332, N-[4-[5-Cyclopropyl-4-[[(4S)-3,3-dimethyl-4-piperidyl]amino]pyrido [3,4-d]pyrirnidin-2-yl]-2-pyridyl]-6-fluoro-1,3-benzoxazol-2-amine] | < 100 nM
CC1(C)CNCC[C@@H]1Nc1nc(-c2ccnc(Nc3ncc(C#N)cc3F)c2)nc2cncc(C3CC3)c12 [Example 333, 6-[[4-[5-Cyclopropyl-4-[[(4S)-3,3-dimethyl-4-piperidyl]amino]pyrido[3,4-d]pyrimidin-2-yl]-2-pyridyl]amino]-5-fluoro-pyridine-3-carbonitrile] | < 100 nM
CC1(C)CNCC[C@@H]1Nc1nc(-c2ccnc(Nc3ncccc3Cl)c2)nc2cncc(C3CCC3)c12 [Example 336, 2-[2-[(3-Chloro-2-pyridyl)amino]-4-pyridyl]-5-cyclobutyl-N-[(4S)-3,3-dimethyl-4-piperidyl]pyrido [3,4-d]pyrimidin-4-amine] | < 100 nM
CC1(C)CNCC[C@@H]1Nc1nc(-c2ccnc(Nc3ncc(Cl)cc3Cl)c2)nc2cncc(C3CCC3)c12 [Example 337, 5-Cyclobutyl-2-[2-[(3,5-dichloro-2-pyridyl)amino]-4-pyridyl]-N-[(4S)-3,3-dimethyl-4-piperidyl]pyrido[3,4-d]pyrimidin-4-amine] | < 100 nM
CC1(C)CNCC[C@@H]1Nc1nc(-c2ccnc(Nc3nc4ccc(F)cc4o3)c2)nc2cncc(C3CCC3)c12 [Example 338, N-[4-[5-Cyclobutyl-4-[[(4S)-3,3-dimethyl-4-piperidyl]amino]pyrido [3,4-d]pyrimidin-2-yl]-2-pyridyl]-6-fluoro-1,3-benzoxazol-2-amine] | < 100 nM
CC1(C)CNCC[C@@H]1Nc1nc(-c2ccnc(Nc3ncccc3Cl)c2)nc2cncc(C3CC3)c12 [Example 339, 2-[2-[(3-Chloro-2-pyridyl)amino]-4-pyridyl]-5-cyclopropyl-N-[(4S)-3,3-dimethyl-4-piperidyl]pyrido[3,4-d]pyrimidin-4-amine] | 100 to 1000 nM
CC1(C)CNCC[C@@H]1Nc1nc(-c2ccnc(Nc3ncc(Cl)cc3Cl)c2)nc2cncc(C3CC3)c12 [Example 340, 5-Cyclopropyl-2-[2-[(3,5-dichloro-2-pyridyl)amino]-4-pyridyl]-N-[(4S)-3,3-dimethyl-4-piperidyl]pyrido[3,4-d]pyrimidin-4-amine] | < 100 nM
FC(F)(F)c1cncc2nc(-c3ccnc4[nH]c5ccccc5c34)nc(NC3CCNCC3)c12 [Example 348, Piperidin-4-yl-[2-(9H-pyrido[2,3-b]indol-4-yl)-5-trifluoromethyl-pyrido[3,4-d]pyrimidin-4-yl]-amine] | < 100 nM
CC1(C)CNCC[C@@H]1Nc1nc(-c2ccnc3[nH]c(C(=O)NC4CCCCC4)cc23)nc2cncc(C3CC3)c12 [Example 355, 4-[5-Cyclopropyl-4-((S)-3,3-dimethyl-piperidin-4-ylamino)-pyrido[3,4-d]pyrimidin-2-yl]-1H-pyrrolo[2,3-b]pyridine-2-carboxylic acid cyclohexylamide] | < 100 nM
